Data published in the supplement of paper PMC10307832.

How the values were obtained:
Assay in all cases: relative viability (nuclei count vs DMSO), 5 days (fraction); higher = more cells survive
XMD13-2 + Navitoclax = compound: C1CC1C(=O)NC2=NNC3=C2C=CC(=C3)C4=CC(=CC=C4)C(=O)NC5CC5 [XMD13-2] + CC1(C)CCC(c2ccc(Cl)cc2)=C(CN2CCN(c3ccc(C(=O)NS(=O)(=O)c4ccc(N[C@H](CCN5CCOCC5)CSc5ccccc5)c(S(=O)(=O)C(F)(F)F)c4)cc3)CC2)C1 [Navitoclax] (partner 0.5 µM)
Method in brief: (§1)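 One day after seeding in 1536-well plates, lung cancer cell lines were dosed by pin tool. Dosing was either single-drug or a fixed anchor-drug dose plus five library-drug doses (not always all listed) in √10 steps. After 5 days, nuclei were stained in one fix-and-stain step and counted on 4× images, and relative viability is the nuclei count of treated wells over that of vehicle wells, given as the median of duplicate plates.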

XMD13-2 + Foretinib = compound: C1CC1C(=O)NC2=NNC3=C2C=CC(=C3)C4=CC(=CC=C4)C(=O)NC5CC5 [XMD13-2] + COc1cc2c(Oc3ccc(NC(=O)C4(C(=O)Nc5ccc(F)cc5)CC4)cc3F)ccnc2cc1OCCCN1CCOCC1 [Foretinib] (partner 0.25 µM)
Method in brief: as §1

XMD13-2 + Crizotinib = compound: C1CC1C(=O)NC2=NNC3=C2C=CC(=C3)C4=CC(=CC=C4)C(=O)NC5CC5 [XMD13-2] + C[C@@H](Oc1cc(-c2cnn(C3CCNCC3)c2)cnc1N)c1c(Cl)ccc(F)c1Cl [Crizotinib] (partner 1 µM)
Method in brief: as §1

ALW-II-49-7 + Trametinib = compound: Cc1ccc(C(=O)Nc2cccc(C(F)(F)F)c2)cc1Nc1cncc(C(N)=O)c1 [ALW-II-49-7] + CC(=O)Nc1cccc(-n2c(=O)n(C3CC3)c(=O)c3c(Nc4ccc(I)cc4F)n(C)c(=O)c(C)c32)c1 [Trametinib] (partner 0.02 µM)
Method in brief: as §1

Row | Cell Line | relative viability (XMD13-2 + Navitoclax; first compound 0.05 µM) | relative viability (XMD13-2 + Navitoclax; first compound 0.1581 µM) | relative viability (XMD13-2 + Navitoclax; first compound 0.5 µM) | relative viability (XMD13-2 + Navitoclax; first compound 1.581 µM) | relative viability (XMD13-2 + Navitoclax; first compound 5 µM) | relative viability (XMD13-2 + Foretinib; first compound 0.05 µM) | relative viability (XMD13-2 + Foretinib; first compound 0.1581 µM) | relative viability (XMD13-2 + Foretinib; first compound 0.5 µM) | relative viability (XMD13-2 + Foretinib; first compound 1.581 µM) | relative viability (XMD13-2 + Foretinib; first compound 5 µM) | relative viability (XMD13-2 + Crizotinib; first compound 0.05 µM) | relative viability (XMD13-2 + Crizotinib; first compound 0.1581 µM) | relative viability (XMD13-2 + Crizotinib; first compound 0.5 µM) | relative viability (XMD13-2 + Crizotinib; first compound 1.581 µM) | relative viability (XMD13-2 + Crizotinib; first compound 5 µM) | relative viability (ALW-II-49-7 + Trametinib; first compound 0.08 µM) | relative viability (ALW-II-49-7 + Trametinib; first compound 0.253 µM) | relative viability (ALW-II-49-7 + Trametinib; first compound 0.8 µM) | relative viability (ALW-II-49-7 + Trametinib; first compound 2.53 µM) | relative viability (ALW-II-49-7 + Trametinib; first compound 8 µM)
1 | NCI-H3122 | 0.996 | 1.02 | 1.02 | 1.01 | 1.01 | 0.966 | 0.949 | 1.05 | 0.977 | 0.939 | 0.308 | 0.289 | 0.267 | 0.251 | 0.249 | 0.243 | 0.235 | 0.292 | 0.311 | 0.222
2 | PC-3 [JPC-3] | 0.819 | 0.843 | 0.827 | 0.781 | 0.693 | 1.02 | 1.02 | 1.05 | 0.999 | 0.989 | 1.02 | 0.897 | 0.963 | 1.01 | 0.847 | 0.676 | 0.786 | 0.745 | 0.809 | 0.847
3 | PC-14 | 0.972 | 1.1 | 0.999 | 0.973 | 1 | 1.04 | 0.947 | 0.981 | 0.995 | 0.976 | 1.03 | 0.961 | 0.909 | 0.818 | 0.969 | 0.722 | 0.826 | 0.717 | 0.683 | 0.665
4 | RERF-LC-KJ | 1.14 | 1.03 | 0.674 | 1 | 0.733 | 0.871 | 0.869 | 0.87 | 0.795 | 0.844 | 0.865 | 0.85 | 0.816 | 0.771 | 0.801 | 0.867 | 0.923 | 0.816 | 0.749 | 0.833
5 | SK-LU-1 | 0.915 | 0.832 | 0.664 | 0.803 | 0.82 | 1.04 | 0.854 | 0.933 | 0.81 | 0.697 | 0.912 | 0.966 | 1 | 0.828 | 0.944 | 0.569 | 0.571 | 0.486 | 0.408 | 0.442
6 | SK-MES-1 | 1.26 | 1.32 | 1.21 | 1.24 | 1.2 | 0.866 | 0.967 | 1.06 | 0.87 | 1.15 | 1.14 | 1.06 | 1.04 | 0.93 | 1.02 | 0.573 | 0.628 | 0.562 | 0.6 | 0.447
7 | SW 1573 | 1.54 | 1.27 | 0.94 | 0.876 | 0.88 | 1.01 | 0.832 | 0.984 | 0.841 | 0.733 | 1.11 | 0.429 | 0.815 | 0.668 | 0.322 | 0.561 | 0.556 | 0.611 | 0.637 | 0.491
